In patent US20170368148A1, “USES OF A PTHrP ANALOGUE IN REDUCING FRACTURE RISK” (RADIUS HEALTH, INC., priority 2015, published 2017):
Marks after values point to notes of the source that are not given here.

Tests used:
[1] = test system: postmenopausal women with osteoporosis; assay: ACTIVE trial: bone turnover markers (CTX, P1NP); assay type: in vivo, human; conditions: at 18 months
Method: The ACTIVE phase 3 fracture prevention trial was conducted for abaloparatide in postmenopausal women with osteoporosis who were otherwise healthy. The enrolled subjects were treated with 80 micrograms (μg) of abaloparatide, a matching placebo, or the approved daily dose of 20 μg of teriparatide for 18 months. The ACTIVE trial evaluated fracture rates, fracture risks, BMD, and bone turnover biomarkers (e.g., CTX and P1NP) in all patient groups.
(§1) BMD and bone turnover biomarkers (CTX and P1NP) were also evaluated in all patient groups to compare the effects of abaloparatide versus teriparatide.

[2] = test system: postmenopausal women with osteoporosis; assay: ACTIVE trial: BMD by DXA; assay type: in vivo, human; conditions: for Mean percent change in BMD from baseline (ANCOVA), Femoral Neck / Mean percent change in BMD from baseline (ANCOVA), Lumbar Spine / Mean percent change in BMD from baseline (ANCOVA), Total Hip / Mean percent change in BMD from baseline (MMRM), Femoral Neck / Mean percent change in BMD from baseline (MMRM), Lumbar Spine / Mean percent change in BMD from baseline (MMRM), Total Hip: abaloparatide 80 μg or teriparatide 20 μg daily
Method: as §1
As set forth in the ACTIVE protocol, the primary efficacy endpoint was the number of patients treated with abaloparatide with incident vertebral fractures at the end of treatment as compared to those who received placebo. The pre-specified secondary efficacy parameters included, among other endpoints, reduction in the incidence/risk of non-vertebral fractures; changes in BMD of the spine, hip, and femoral neck from baseline to end of treatment as assessed by DXA and as compared to teriparatide; and the number of hypercalcemic events in abaloparatide treated patients when compared to teriparatide at end of treatment.
Comparative analyses of abaloparatide versus teriparatide were completed on the following BMD secondary endpoints using a Mixed-Effect Model for Repeated Measures (MMRM) method, shown in Table 4 below:
Comparative analyses of the PTHrP analogues abaloparatide and teriparatide were completed on the following BMD secondary endpoints using an ANCOVA approach, shown in Table 5 below: […]

CC[C@H](C)[C@H](NC(=O)[C@H](CCC(=O)O)NC(=O)[C@H](CO)NC(=O)[C@@H](NC(=O)[C@@H](N)CO)C(C)C)C(=O)N[C@@H](CCC(N)=O)C(=O)N[C@@H](CC(C)C)C(=O)N[C@@H](CCSC)C(=O)N[C@@H](Cc1cnc[nH]1)C(=O)N[C@@H](CC(N)=O)C(=O)N[C@@H](CC(C)C)C(=O)NCC(=O)N[C@@H](CCCCN)C(=O)N[C@@H](Cc1cnc[nH]1)C(=O)N[C@@H](CC(C)C)C(=O)N[C@@H](CC(N)=O)C(=O)N[C@@H](CO)C(=O)N[C@@H](CCSC)C(=O)N[C@@H](CCC(=O)O)C(=O)N[C@@H](CCCN=C(N)N)C(=O)N[C@H](C(=O)N[C@@H](CCC(=O)O)C(=O)N[C@@H](Cc1c[nH]c2ccccc12)C(=O)N[C@@H](CC(C)C)C(=O)N[C@@H](CCCN=C(N)N)C(=O)N[C@@H](CCCCN)C(=O)N[C@@H](CCCCN)C(=O)N[C@@H](CC(C)C)C(=O)N[C@@H](CCC(N)=O)C(=O)N[C@@H](CC(=O)O)C(=O)N[C@H](C(=O)N[C@@H](Cc1cnc[nH]1)C(=O)N[C@@H](CC(N)=O)C(=O)N[C@@H](Cc1ccccc1)C(=O)O)C(C)C)C(C)C [teriparatide, hPTH(1-34)]
CTX level compared to placebo [1]: elevated levels compared to placebo
Mean percent change in BMD from baseline (ANCOVA), Femoral Neck ([2]; 6 mo): 0.80%*
Mean percent change in BMD from baseline (ANCOVA), Lumbar Spine ([2]; 6 mo): 4.84%*
Mean percent change in BMD from baseline (ANCOVA), Total Hip ([2]; 6 mo): 1.33%*
Mean percent change in BMD from baseline (MMRM), Femoral Neck ([2]; 6 mo): 0.87%*
Mean percent change in BMD from baseline (MMRM), Lumbar Spine ([2]; 6 mo): 5.25%*
Mean percent change in BMD from baseline (MMRM), Total Hip ([2]; 6 mo): 1.44%*
Mean percent change in BMD from baseline (ANCOVA), Femoral Neck ([2]; 12 mo): 1.41%*
Mean percent change in BMD from baseline (ANCOVA), Lumbar Spine ([2]; 12 mo): 7.40%*
Mean percent change in BMD from baseline (ANCOVA), Total Hip ([2]; 12 mo): 2.03%*
Mean percent change in BMD from baseline (MMRM), Femoral Neck ([2]; 12 mo): 1.54%*
Mean percent change in BMD from baseline (MMRM), Lumbar Spine ([2]; 12 mo): 8.28%*
Mean percent change in BMD from baseline (MMRM), Total Hip ([2]; 12 mo): 2.29%*
Subjects with increased BMD of >3% at all three sites (lumbar spine, total hip, femoral neck) ([2]; 12 months): 19.8%
Mean percent change in BMD from baseline (ANCOVA), Femoral Neck ([2]; 18 mo): 2.26%*
Mean percent change in BMD from baseline (ANCOVA), Lumbar Spine ([2]; 18 mo): 9.12%*
Mean percent change in BMD from baseline (ANCOVA), Total Hip ([2]; 18 mo): 2.81%*
Mean percent change in BMD from baseline (MMRM), Femoral Neck ([2]; 18 mo): 2.66%*
Mean percent change in BMD from baseline (MMRM), Lumbar Spine ([2]; 18 mo): 10.49%*
Mean percent change in BMD from baseline (MMRM), Total Hip ([2]; 18 mo): 3.26%*
Subjects with increased BMD of >3% at all three sites (lumbar spine, total hip, femoral neck) ([2]; 18 months): 32.0%
Subjects with increased BMD of >3% at all three sites (lumbar spine, total hip, femoral neck) ([2]; month 6): 6.5%
